Tests used:
[1] = target: T1, Human Serotonin Transporter (hSERT) (Homo sapiens, UniProt P31645); assay: Human Serotonin Transporter (hSERT) Scintillation Proximity Assay (SPA), competition with [3H]-Citalopram; type: binding; conditions: membranes of HEK-293 cells expressing recombinant hSERT, Ki by Cheng-Prusoff; for Ki: read-out: pKi SERT (converted)
T1 construct: expressed in transfected cells; membranes prepared from them
Description: Screening for Human Serotonin Transporter (hSERT) Antagonists Using a Scintillation Proximity Assay (SPA)
Scintillation Proximity Assay (SPA) works by bringing radioligand within close proximity to the bead's scintillant to stimulate light emission. […] Unbound radioligand produced no signal as a result of distant proximity to scintillant (lack of energy transfer).

[2] = target: Human Norepinephrine Transporter (hNET) (Homo sapiens, UniProt P23975); assay: Human Norepinephrine Transporter (hNET) Scintillation Proximity Assay (SPA), competition with [3H]-Nisoxetine; conditions: membranes of HEK-293 cells expressing recombinant hNET, Ki by Cheng-Prusoff; for Ki: pKi NET
Sequence of Human Norepinephrine Transporter (hNET) (P23975 whole entry): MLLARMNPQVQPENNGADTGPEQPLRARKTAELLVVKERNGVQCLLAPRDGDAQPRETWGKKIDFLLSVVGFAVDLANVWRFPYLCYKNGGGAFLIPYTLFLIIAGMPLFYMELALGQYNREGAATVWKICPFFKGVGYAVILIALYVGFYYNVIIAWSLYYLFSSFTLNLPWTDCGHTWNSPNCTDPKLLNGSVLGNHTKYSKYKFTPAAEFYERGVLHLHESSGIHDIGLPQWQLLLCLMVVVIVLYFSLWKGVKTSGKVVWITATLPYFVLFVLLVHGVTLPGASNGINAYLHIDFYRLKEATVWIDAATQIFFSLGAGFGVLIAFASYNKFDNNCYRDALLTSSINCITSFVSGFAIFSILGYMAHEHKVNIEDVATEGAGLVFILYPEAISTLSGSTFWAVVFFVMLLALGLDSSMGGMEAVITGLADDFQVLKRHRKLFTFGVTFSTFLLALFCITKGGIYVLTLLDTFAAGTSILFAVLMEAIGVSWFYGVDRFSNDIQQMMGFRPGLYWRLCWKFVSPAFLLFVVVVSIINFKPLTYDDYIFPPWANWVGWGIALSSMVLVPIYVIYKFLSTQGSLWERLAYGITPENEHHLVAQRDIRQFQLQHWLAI

T1 sequence (P31645 whole entry): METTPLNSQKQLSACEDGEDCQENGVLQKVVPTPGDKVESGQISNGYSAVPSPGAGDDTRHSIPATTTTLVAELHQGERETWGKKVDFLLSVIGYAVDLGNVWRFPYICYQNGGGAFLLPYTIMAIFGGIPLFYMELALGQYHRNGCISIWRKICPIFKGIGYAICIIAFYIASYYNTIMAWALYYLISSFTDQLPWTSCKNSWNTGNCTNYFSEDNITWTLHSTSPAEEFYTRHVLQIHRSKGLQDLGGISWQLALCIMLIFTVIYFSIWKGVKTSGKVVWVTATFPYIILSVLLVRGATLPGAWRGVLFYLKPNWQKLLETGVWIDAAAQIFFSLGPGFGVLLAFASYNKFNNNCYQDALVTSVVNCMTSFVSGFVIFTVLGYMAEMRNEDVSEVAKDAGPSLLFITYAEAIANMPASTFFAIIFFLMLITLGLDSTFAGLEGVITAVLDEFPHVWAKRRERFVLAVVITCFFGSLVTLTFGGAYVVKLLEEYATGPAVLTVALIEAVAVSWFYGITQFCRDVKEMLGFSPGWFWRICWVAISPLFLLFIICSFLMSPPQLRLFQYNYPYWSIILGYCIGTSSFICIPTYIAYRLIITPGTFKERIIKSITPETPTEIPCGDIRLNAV

CNCCC(c1ccc2[nH]ccc2c1)c1cccc2cc[nH]c12 (stereo not shown) [Compound 121, [3-(1H-Indol-7-yl)-3-(1H-indol-5-yl)-propyl]-methyl-amine]
Ki [1]: 0.0468 µM
Ki [2]: 0.0562 µM

[3-(3,4-Dichloro-phenyl)-3-(1H-indol-5-yl)-propyl]-methyl-amine [Compound 107]
pKi SERT [1]: 8.17
pKi NET [2]: 7.83

CNCCC(c1ccccc1)c1ccc2[nH]ccc2c1 (stereo not shown) [Compound 42, [3-(1H-Indol-5-yl)-3-phenyl-propyl]-methyl-amine]
Ki [1]: 0.0324 µM
pKi NET [2]: 8.0

4-Methoxy-5-(3-methylamino-1-phenyl-propyl)-1H-indole-3-carbonitrile [Compound 89]
pKi SERT [1]: 9.07
pKi NET [2]: 6.05

CNCCC(c1ccccc1)c1ccc2[nH]cc(C)c2c1 (stereo not shown) [Compound 15, Methyl-[3-(3-methyl-1H-indol-5-yl)-3-phenyl-propyl]-amine]
Ki [1]: 0.00525 µM
Ki [2]: 0.0407 µM

CNCCC(c1ccc2[nH]ccc2c1)c1ccc2sccc2c1 (stereo not shown) [Compound 116, [3-Benzo[b]thiophen-5-yl-3-(1H-indol-5-yl)-propyl]-methyl-amine]
Ki [1]: 0.00174 µM
Ki [2]: 0.00501 µM

CCOc1n[nH]c2ccc(C(CCNC)c3ccccc3)cc12 (stereo not shown) [Compound 79, [3-(3-Ethoxy-1H-indazol-5-yl)-3-phenyl-propyl]-methyl-amine]
Ki [1]: 0.0269 µM
Ki [2]: 0.132 µM

CNCCC(c1ccccc1)c1ccc2[nH]ccc2c1F (stereo not shown) [Compound 97, [3-(4-Fluoro-1H-indol-5-yl)-3-phenyl-propyl]-methyl-amine]
Ki [1]: 0.00933 µM
Ki [2]: 0.017 µM

CNCC[C@@H](c1ccccc1)c1cc(OC)c2[nH]ncc2c1 [Compound 82, [3-(7-Methoxy-1H-indazol-5-yl)-3-(S)-phenyl-propyl]-methyl-amine]
Ki [1]: 0.00372 µM
Ki [2]: 0.00263 µM

CNCC[C@H](c1ccccc1)c1cc(F)c2[nH]cc(C#N)c2c1 [Compound 99, 7-Fluoro-5-(3-methylamino-1-(R)-phenyl-propyl)-1H-indole-3-carbonitrile]
Ki [1]: 0.000661 µM
Ki [2]: 0.145 µM

CNCCC(c1ccccc1)c1cc(F)c2[nH]cc(C#N)c2c1 (stereo not shown) [Compound 19]
Ki [1]: 0.00214 µM
Ki [2]: 0.0562 µM

[3-(7-Methoxy-1H-indol-5-yl)-3-phenyl-propyl]-methyl-amine [Compound 22]
pKi SERT [1]: 7.66
pKi NET [2]: 8.39

CNCCC(c1ccccc1)c1ccc2ccn(C)c2c1 (stereo not shown) [Compound 9, Methyl-[3-(1-methyl-1H-indol-6-yl)-3-phenyl-propyl]-amine]
Ki [1]: 0.00955 µM
Ki [2]: 0.0741 µM

CNCCC(c1ccc2c(c1)OCCN2C)c1ccc2[nH]ccc2c1 (stereo not shown) [Compound 114, [3-(1H-Indol-5-yl)-3-(4-methyl-3,4-dihydro-2H-benzo[1,4]oxazin-7-yl)-propyl]-methyl-amine]
Ki [1]: 0.0776 µM
Ki [2]: 0.0871 µM

[3-(5-Methoxy-1H-indol-6-yl)-3-phenyl-propyl]-methyl-amine [Compound 86]
pKi SERT [1]: 8.01
pKi NET [2]: 7.63

3-[1-(7-Fluoro-1H-indol-5-yl)-3-methylamino-propyl]-benzonitrile [Compound 110]
pKi SERT [1]: 7.59
pKi NET [2]: 7.95

CNCCC(c1ccccc1)c1ccc2c(C#N)c[nH]c2c1 (stereo not shown) [Compound 28, 6-(3-Methylamino-1-phenyl-propyl)-1H-indole-3-carbonitrile]
pKi SERT [1]: 9.72
pKi NET [2]: 6.89

[3-(7-Fluoro-1H-indol-5-yl)-3-(2-fluoro-phenyl)-propyl]-methyl-amine [Compound 95]
pKi SERT [1]: 7.22
pKi NET [2]: 8.32

CNCC[C@H](c1ccccc1)c1cc(OC)c2[nH]ncc2c1 [Compound 83, [3-(7-Methoxy-1H-indazol-5-yl)-3-(R)-phenyl-propyl]-methyl-amine]
Ki [1]: 0.0115 µM
Ki [2]: 0.0537 µM

CNCCC(c1ccc2[nH]ccc2c1)c1ccc2cc[nH]c2c1 (stereo not shown) [Compound 117, [3-(1H-Indol-6-yl)-3-(1H-indol-5-yl)-propyl]-methyl-amine]
Ki [1]: 0.00891 µM
Ki [2]: 0.00589 µM

[3-(7-Fluoro-1H-indol-5-yl)-3-(4-fluoro-phenyl)-propyl]-methyl-amine [Compound 94]
pKi SERT [1]: 7.75
pKi NET [2]: 8.0

[3,3-Bis-(7-fluoro-1H-indol-5-yl)-propyl]-methyl-amine [Compound 118]
pKi SERT [1]: 7.43
pKi NET [2]: 8.87

NCCC(c1ccccc1)c1cc(Cl)c2[nH]c(C(N)=O)cc2c1 (stereo not shown) [Compound 103, 5-(3-Amino-1-phenyl-propyl)-7-chloro-1H-indole-2-carboxylic acid amide]
Ki [1]: 0.145 µM
Ki [2]: 0.00437 µM

7-Chloro-5-(3-methylamino-1-phenyl-propyl)-1H-indole-2-carboxylic acid amide [Compound 105]
pKi SERT [1]: 7.31
pKi NET [2]: 8.35

7-Fluoro-5-(3-methylamino-1-(S)-phenyl-propyl)-1H-indole-3-carbonitrile [Compound 104]
pKi SERT [1]: 8.1
pKi NET [2]: 7.49

CNCCC(c1ccccc1)c1ccc2[nH]c(C(N)=O)cc2c1 (stereo not shown) [Compound 24, 5-(3-Methylamino-1-phenyl-propyl)-1H-indole-2-carboxylic acid amide]
Ki [1]: 0.0708 µM
Ki [2]: 0.00288 µM

CNCCC(c1ccccc1)c1cc(F)c2c(c1)c(C#N)cn2C (stereo not shown) [Compound 127, 7-Fluoro-1-methyl-5-(3-methylamino-1-phenyl-propyl)-1H-indole-3-carbonitrile]
Ki [1]: 0.00832 µM
Ki [2]: 0.0513 µM

[3-(1H-Indol-5-yl)-3-quinolin-6-yl-propyl]-methyl-amine [Compound 112]
pKi SERT [1]: 8.67
pKi NET [2]: 7.5

[3-(1H-Indol-6-yl)-3-(2-methoxy-phenyl)-propyl]-methyl-amine [Compound 34]
pKi SERT [1]: 7.63
pKi NET [2]: 6.59

CNCCC(c1ccccc1)c1ccc2[nH]nc(OCC3CC3)c2c1 (stereo not shown) [Compound 81, [3-(3-Cyclopropylmethoxy-1H-indazol-5-yl)-3-phenyl-propyl]-methyl-amine]
Ki [1]: 0.0562 µM
Ki [2]: 0.214 µM

CNCC[C@H](c1ccccc1)c1ccc2[nH]nc(Cl)c2c1 [Compound 61, [(R)-3-(3-Chloro-1H-indazol-5-yl)-3-phenyl-propyl]-methyl-amine trifluoracetate]
Ki [1]: 0.00339 µM
Ki [2]: 0.123 µM

CNCCC(c1ccc2[nH]ccc2c1)c1ccc2nccnc2c1 (stereo not shown) [Compound 123, [3-(1H-Indol-5-yl)-3-quinoxalin-6-yl-propyl]-methyl-amine]
Ki [1]: 0.0479 µM
Ki [2]: 0.112 µM

[3-(3,4-Dichloro-phenyl)-3-(7-fluoro-1H-indol-5-yl)-propyl]-methyl-amine [Compound 109]
pKi SERT [1]: 7.9
pKi NET [2]: 7.56

CNCC[C@@H](c1ccccc1)c1ccc2[nH]nc(Cl)c2c1 [Compound 60, [(S)-3-(3-Chloro-1H-indazol-5-yl)-3-phenyl-propyl]-methyl-amine]
Ki [1]: 0.00851 µM
Ki [2]: 0.0407 µM

CNCCC(c1ccccc1)c1ccc2sccc2c1 (stereo not shown) [Compound 143, (3-Benzo[b]thiophen-5-yl-3-phenyl-propyl)-methyl-amine]
Ki [1]: 0.0224 µM
Ki [2]: 0.00155 µM

CNCCC(c1ccc2[nH]ccc2c1)c1cccc2ccccc12 (stereo not shown) [Compound 115, [3-(1H-Indol-5-yl)-3-naphthalen-1-yl-propyl]-methyl-amine]
Ki [1]: 0.00813 µM
Ki [2]: 0.0437 µM

NCCC(c1ccc2ncccc2c1)c1ccc2[nH]ccc2c1 (stereo not shown) [Compound 120, 3-(1H-Indol-5-yl)-3-quinolin-6-yl-propylamine]
Ki [1]: 0.00324 µM
Ki [2]: 0.141 µM

CNCCC(c1ccccc1)c1ccc2[nH]nc(OC(C)C)c2c1 (stereo not shown) [Compound 80, [3-(3-Isopropoxy-1H-indazol-5-yl)-3-phenyl-propyl]-methyl-amine]
Ki [1]: 0.0331 µM
Ki [2]: 0.148 µM

[3-(7-Fluoro-1H-indol-5-yl)-3-(3-methoxy-phenyl)-propyl]-methyl-amine [Compound 100]
pKi SERT [1]: 7.79
pKi NET [2]: 7.95

CNCCC(c1ccccc1)c1cc(F)c2[nH]ccc2c1 (stereo not shown) [Compound 13]
pKi SERT [1]: 7.4
pKi NET [2]: 8.2

CNCCC(c1cccc(F)c1)c1cc(Cl)c2[nH]ccc2c1 (stereo not shown) [Compound 108]
Ki [1]: 0.0129 µM
Ki [2]: 0.00288 µM

CNCCC(c1ccccc1)c1ccc2[nH]cc(C(=O)N(C)C)c2c1 (stereo not shown) [Compound 92, 5-(3-Methylamino-1-phenyl-propyl)-1H-indole-3-carboxylic acid dimethylamide]
Ki [1]: 0.0355 µM
Ki [2]: 0.316 µM

CNCCC(c1ccccc1)c1ccc2[nH]cc(S(C)(=O)=O)c2c1 (stereo not shown) [Compound 16]
Ki [1]: 0.151 µM
Ki [2]: 0.724 µM

[3-(7-Fluoro-1H-indol-5-yl)-3-(3-fluoro-phenyl)-propyl]-methyl-amine [Compound 93]
pKi SERT [1]: 7.76
pKi NET [2]: 8.41

CNCCC(c1ccccc1)c1cc(Cl)c2[nH]ncc2c1 (stereo not shown) [Compound 77, [3-(7-Chloro-1H-indazol-5-yl)-3-phenyl-propyl]-methyl-amine]
Ki [1]: 0.00912 µM
Ki [2]: 0.0055 µM

5-[1-(1H-Indol-5-yl)-3-methylamino-propyl]-1H-indole-3-carbonitrile [Compound 122]
pKi SERT [1]: 9.24
pKi NET [2]: 7.7

CNCCC(c1ccc2[nH]ccc2c1)c1nccs1 (stereo not shown) [Compound 139, [3-(1H-Indol-5-yl)-3-thiazol-2-yl-propyl]-methyl-amine]
Ki [2]: 0.0741 µM

CNCCC(c1ccccc1)c1ccc2occc2c1 (stereo not shown) [Compound 142, (3-Benzofuran-5-yl-3-phenyl-propyl)-methyl-amine]
Ki [1]: 0.0107 µM
Ki [2]: 0.0105 µM

[3-(7-Fluoro-1H-indol-5-yl)-3-(4-methoxy-phenyl)-propyl]-methyl-amine [Compound 98]
pKi SERT [1]: 7.88
pKi NET [2]: 8.3

From patent EP2351737A1, “3-Amino-1-arylpropyl indoles and aza-substituted indoles” (F. Hoffmann-La Roche AG, priority 2005, dated 2007)
